From patent US12215354B2, “Differentiation of human embryonic stem cells into single hormonal insulin positive cells” (Janssen Biotech, Inc., priority 2011, dated 2025)

Test system: human embryonic stem cell line H1
Assay: Real-time PCR gene expression, ascorbic acid at stages 3-5 (Example 11)
Type: cell-based
Conditions: at stages 4-5
Protocol: Cells of the human embryonic stem cell line H1 at various passages (passage 40 to passage 52) were seeded as single cells at a density of 100,000 cells/cm^2 on MATRIGEL™ (1:30 dilution) coated dishes in mTesr™1 media and 10 μM of Y27632. Forty eight hours post seeding, cultures were differentiated into pancreatic endocrine lineage as follows: • a. Stage 1 (Definitive Endoderm (DE)−3 days): Prior to start of DE, the cultures were washed and incubated with incomplete PBS (no Mg or Ca) for 30 seconds followed by addition of the stage 1 media. Human embryonic stem cells cultured as single cells on MATRIGEL™-coated dishes were treated with MCDB-131 medium supplemented with 0.1% fatty acid-free BSA, 0.0012 g/ml sodium bicarbonate, 1× GLUTAMAX™, 5 mM D-Glucose, 100 ng/ml GDF8, and 1 μM MCX compound (GSK3B inhibitor) for one day. Cells were then treated with MCDB-131 medium supplemented with 0.1% fatty acid-free BSA, 0.0012 g/ml sodium bicarbonate, 1× GLUTAMAX™, 5 mM glucose, 100 ng/ml GDF8, and 100 nM MCX compound for day two, followed by an additional day in MCDB-131 medium supplemented with 0.1% fatty acid-free BSA, 0.0012 g/ml sodium bicarbonate, 1× GLUTAMAX™, 5 mM Glucose, and 100 ng/ml GDF8. • b. Stage 2 (Primitive gut tube−2 days): Stage 1 cells were treated with MCDB-131 medium supplemented with 0.1% fatty acid-free BSA, 0.0012 g/ml sodium bicarbonate, 1× GLUTAMAX™, 5 mM D-Glucose, and 25 ng/ml FGF7 for two days. • c. Stage 3 (Foregut−2 days): Stage 2 cells were treated with MCDB-131 medium supplemented with 1:200 dilution of ITS-X, 2.5 mM Glucose, 1× GLUTAMAX™, 0.0015 g/ml sodium bicarbonate, 2% fatty acid-free BSA, 10 ng/ml Activin A, 25 ng/ml FGF7, 0.25 μM SANT-1, 1 μM RA, 200 nM TPB (PKC activator), 100 nM LDN-193189 (BMP receptor inhibitor) for one day. Cells were then treated with MCDB-131 medium supplemented with 1:200 dilution of ITS-X, 2.5 mM Glucose, 1× GLUTAMAX™, 0.0015 g/ml sodium bicarbonate, 2% fatty acid-free BSA, 10 ng/ml Activin A, 25 ng/ml FGF7, 0.25 μM SANT-1, 1 μM RA, 200 nM TPB (PKC activator), 10 nM LDN-193189 for an additional day. […]

[1] = ascorbic acid added at stage 3 or at stages 3 and 4

SMILES: O=C1O[C@H]([C@@H](O)CO)C(O)=C1O [ascorbic acid]
- expression of pancreatic endoderm markers PDX-1 and NKX6.1 (0.25 mM ascorbic acid): not significantly altered
- expression of insulin [1]: increasing
- expression of somatostatin and glucagon [1]: significantly decreased
